Measurements reported in patent US11535939B2, “Surface treatment method for copper or copper alloy, surface treatment liquid for sterilizing copper or copper alloy, and sterilization method using copper or copper alloy treated by said method” (NATIONAL INSTITUTE FOR MATERIALS SCIENCE, priority 2017, dated 2022).

Test system: Escherichia coli (E. coli)
Assay: Simple test for antimicrobial activity using E. coli based on JIS Z2801 (0.9% NaCl, fluorescent dye viability)
Format: cell-based
Conditions: Example 5, FIG. 8, Cu sample piece, 5 minutes after seeding
Source text: In this Example, effects of GSH, which is a biological reducing substance, on antimicrobial activity of copper and copper alloys were studied by a simple test for antimicrobial activity using E. coli based on the test for antimicrobial activity specified in JIS Z2801. As shown in FIG. 6(a), first, a copper (Cu) sample piece (15 mm square) was placed on the bottom surface of a glass container. Next, on the upper surface of the sample piece, 0.9% NaCl (−GSH) not containing GSH as a solvent or a 0.9% NaCl solution (+GSH) containing GSH at a concentration of 1.0 mM as a solvent was used to seed about 1.0×10^6 cells/50 μL of E. coli. This bacterial suspension was covered with a polyethylene (PE) sheet so as not to dry the bacterial suspension. Then, the glass container was placed under static culture condition of 35±1° C. The PE sheet was removed 0 minute (immediately after seeding), 5 minutes, and 10 minutes after seeding of E. coli, and 1 mL of 0.9% NaCl+0.1 mM EDTA-2Na was added to the bacterial suspension, and the bacterial suspension was collected by pipetting. A fluorescent dye was added to the collected bacterial suspension, and viability of E. coli was determined by measuring fluorescence intensity. In order to avoid a contact between the back surface of the Cu sample piece and the solution when collecting E. coli, the back surface of the Cu sample piece was coated with a thin silicone sheet in advance. […] GSH was added at a concentration of 0 mM (no addition), 1.0 mM, 2.0 mM, and 10.0 mM, and the results are shown in this order from the left. In FIG. 8, the longitudinal axis represents a ratio of bacterial viability (relative viability) normalized to the bacterial viability in the control test as 1. […] Note that the time from seeding of E. coli to collection of a bacterial suspension was set to 5 minutes.

`N[C@@H](CCC(=O)N[C@@H](CS)C(=O)NCC(=O)O)C(=O)O` [GSH, Reduced glutathione] was tested. Which “bacterial viability (relative viability)” value (GSH 1.0 mM) did it give?
The value was “decreased more than a case without GSH”.

And the “bacterial viability (relative viability)” value (GSH 2.0 mM)?
Its value is “equivalent or greater than the result without GSH”.

And the “bacterial viability (relative viability)” value (GSH 10.0 mM)?
The value was “equivalent or greater than the result without GSH”.
